From patent publication US11975099B2, “Ethanol foam sclerosing agent for treating vascular anomalies and preparation method thereof” (QILU HOSPITAL OF SHANDONG UNIVERSITY, priority 2019, dated 2024)

Legend:
[1] = Plasma experiment (protein coagulation in anticoagulant blood); conditions: added to 1 mL fresh human anticoagulant blood in test tube
Experimental: Plasma experiment: A plasma experiment was performed using absolute ethanol and the sclerosing agent solution of Embodiment 1. As shown in A of FIG. 3, 1 mL of fresh human anticoagulant blood was taken. As shown in C of FIG. 3, absolute ethanol was added to a test tube, and as shown in B of FIG. 3, the sclerosing agent solution of Embodiment 1 was added to a test tube.

rabbit ear edge = assay: Animal experiment: rabbit ear edge injection; assay type: in vivo; conditions: 0.5 mL injected, New Zealand white rabbits
Experimental: Animal experiment: A first experimental group: the experimental subjects were 20 New Zealand white rabbits with the body weight of 1.5 kg, injected with 0.5 mL of absolute ethanol solution. A second experimental group: the experimental subjects were 20 New Zealand white rabbits with the body weight of 1.5 kg, injected with 0.5 mL of the foam sclerosing agent of Embodiment 1. The edges of ears of the experimental subjects in the first experimental group and the second experimental group were all intact before the experiment.

reaction of ear edge 3 days after the injection (rabbit ear edge; 3 days): the whole ear has obvious hematoma
reaction of ear edge 7 days after the injection (rabbit ear edge; 7 days): the swelling is reduced
SMILES: CCO [absolute ethanol]
coagulation of the protein in the plasma [1]: coagulated the protein in the plasma
reaction of ear edge 25 days after the injection (rabbit ear edge; 25 days): the local blood vessels and some normal tissues are destroyed, resulting in tissue defect of the rabbit ear edge
reaction of ear edge immediately after the injection (rabbit ear edge; immediately after injection): extensive and large-area hematoma appears on the ear edge immediately
